Here are results for 29 compounds from ChEMBL document CHEMBL1129421, “Comparative molecular field analysis of haptens docked to the multispecific antibody IgE(Lb4)” (J Med Chem, 1996).

This test concerns Monoclonal antibody (mAb). The experiment in a line: Ability to bind to monoclonal antibody IgE (Lb4), expressed as association constant (LogKA).
For `Nc1ccc(/N=N/c2ccccc2)c(N)n1`, the Log KA came out at 6.5.

For the compound `CSCCC(Nc1ccc([N+](=O)[O-])cc1[N+](=O)[O-])C(=O)O` (centres undefined), the Log KA is 5.72.

In turn, `O=[N+]([O-])c1ccc(O)c([N+](=O)[O-])c1` yielded a Log KA of 4.89. `O=C(O)CC(Nc1ccc([N+](=O)[O-])cc1[N+](=O)[O-])C(=O)O` (centres undefined) gave a Log KA of 5.5. Consider `O=C(O)C(Cc1c[nH]c2ccccc12)Nc1ccc([N+](=O)[O-])cc1[N+](=O)[O-]` (centres undefined), for which the Log KA turned out to be 5.93. As for `O=C(O)C(Cc1ccccc1)Nc1ccc([N+](=O)[O-])cc1[N+](=O)[O-]` (centres undefined), the Log KA turned out to be 5.78. As for `N[C@@H](CCCCNc1ccc([N+](=O)[O-])cc1[N+](=O)[O-])C(=O)O`, the figure is 4.38. As for `O=C(O)c1ccc2ccccc2c1O`, the figure is 6.71; as for `O=C(O)CNc1ccc([N+](=O)[O-])cc1[N+](=O)[O-]`, 4.9. As for `CC(=O)Nc1nnc(S(N)(=O)=O)s1`, the figure is 5; as for `NC(=O)CC(Nc1ccc([N+](=O)[O-])cc1[N+](=O)[O-])C(=O)O` (centres undefined), 4.92. Turning to `O[C@@](CCN1CCCCC1)(c1ccccc1)C1CCCC1`, the Log KA stood at 4.84. The compound `O=C(O)C(CO)Nc1ccc([N+](=O)[O-])cc1[N+](=O)[O-]` (centres undefined) had a Log KA of 5.5. `O=C(O)CCC(Nc1ccc([N+](=O)[O-])cc1[N+](=O)[O-])C(=O)O` (centres undefined) had a Log KA of 4.63.

The compound `O=C(O)C(Cc1ccc(O)cc1)Nc1ccc([N+](=O)[O-])cc1[N+](=O)[O-]` (centres undefined) registered a Log KA of 4.85. `CC(C)CC(Nc1ccc([N+](=O)[O-])cc1[N+](=O)[O-])C(=O)O` (centres undefined) showed a Log KA of 5.39. In turn, `Nc1ccc2ccccc2c1` displayed a Log KA of 5.71. In the case of `NC(=O)CCC(Nc1ccc([N+](=O)[O-])cc1[N+](=O)[O-])C(=O)O` (centres undefined), the Log KA was 5.08. The compound `N=C(N)NCCC[C@H](Nc1ccc([N+](=O)[O-])cc1[N+](=O)[O-])C(=O)O` gave a Log KA of 5.04. `C[N+](C)(C)CC(O)C[N+](C)(C)C` yielded a Log KA of 4.66. In turn, `CC(O)C(Nc1ccc([N+](=O)[O-])cc1[N+](=O)[O-])C(=O)O` (centres undefined) showed a Log KA of 5.49. With `O=C(O)C1CCCN1c1ccc([N+](=O)[O-])cc1[N+](=O)[O-]` (centres undefined), the Log KA turned out to be 5.19. As to `N#C/C(=C\c1ccccc1)C(=O)O`, the Log KA came to 5.04. Next, `O[C@](CCN1CCCCC1)(c1ccccc1)C1CCCC1`: 4.84; `CC(Nc1ccc([N+](=O)[O-])cc1[N+](=O)[O-])C(=O)O` (centres undefined): 5.8. In the case of `Cc1ccc(O)c(C(=O)O)c1`, the Log KA is 5.38. As to `CC(C)C(Nc1ccc([N+](=O)[O-])cc1[N+](=O)[O-])C(=O)O` (centres undefined), the Log KA amounted to 5.93.

As to `O=C(O)c1cccc(C(=O)O)c1C(=O)O`, the Log KA amounted to 4.77. `O=C(CCC(=O)Oc1ccccc1C(=O)O)Oc1ccccc1C(=O)O` yielded a Log KA of 4.57.
